Patent publication US20110144177A1, “Carbamoyl Esters That Inhibit Cholinesterase And Release Pharmacologically Active Agents” (priority 2003, published 2011)

Tests used:
[1] = system: scopolamine-induced amnesia; experiment: Scopolamine induced amnesia in multiple trial passive (inhibitory) avoidance assay; format: in vivo, rat; details: for Performance relative to scopolamine / Performance relative to saline: at the most effective dose, latency to enter dark chamber; for Performance relative to scopolamine: relative to impaired (scopolamine) group; for Performance relative to saline: relative to unimpaired (saline) control group; for most effective dose (the dose that increases the latency the most): i.p. immediately after training, scopolamine 0.75 mg/kg, retention 24 hours later
Description: Inhibitory avoidance is used as a cognitive performance screen because the discrete nature of the task allows for precise pharmacological manipulation and for the ability to selectively study acquisition, consolidation, or recall or learned information.
The inhibitory avoidance apparatus used in these experiments consisted of a light chamber and a dark chamber, which were joined by means of a sliding guillotine door. Training involved placing a rat inside the light chamber with its head facing away from the door. Ten seconds later, the sliding door was opened, and the latency to enter the dark chamber was recorded (100 second maximum). When the rat entered the dark chamber, it received a continuous footshock (0.4 mA) through the metal grid floor until it returned to the light chamber. This sequence of events continued until the rat remained in the light chamber for a period of 100 consecutive seconds or until a maximum of 5 footshocks had been received.
Retention testing, or the ability of the rat to remember the previous events in the inhibitory avoidance apparatus, was conducted 24 hours after the initial testing. The rat was placed into the light chamber with its head facing away from the door. Ten seconds later, the door was opened, allowing the rat access to the dark chamber. No footshock was administered during retention testing. Latency to enter the dark chamber was recorded (900 seconds maximum) and used as a measure of memory.
To assess the effects of the carbamoyl esters on scopolamine-induced amnesia, rats were injected with saline or scopolamine hydrochloride (0.75 mg/kg) 30 minutes prior to training on the Inhibitory Avoidance task. Immediately following the training trial, rats were injected with saline or the carbamoyl ester.
Retention for the task in scopolamine or saline treated rats, was assessed as described above, 24 hours later. No compound (drug) was administered to the rat prior to the retention test and no shock was given during retention testing. For retention testing, the rat was placed into the light chamber. Fifteen seconds later, the door was automatically opened and latency to enter the dark compartment was measured. The latency to enter the dark chamber is the primary measure of memory on this task. Carbamoyl esters were evaluated in this protocol.

[2] = system: total cholinesterase activity in the brain; experiment: Total cholinesterase activity in brain homogenate after i.p. injection; format: in vivo, Male Wistar rats; details: for tolerability of the dose: i.p. dose giving a cholinergic behavioral effect with minimal side effects
Method: Animals were decapitated 3 hours after injection and the brains rapidly removed. The brain tissue was diced into small pieces, placed on ice and immediately homogenized with a Polytron PT1200 (Kinematic AG) in 10 ml ice cold Tris with 0.1% Triton-X and protease inhibitors. The protease inhibitors in the extraction buffer were Antipain (10 μM), Aprotinin (5 TIU/mg protein), Bestatin ([…]), Leupeptin (10 μM) and Pepstatin (1 μM). The final dilution of the homogenate in the final assay mixture was 120-fold.
Total cholinesterase activity was determined by a modification of the colorimetric method of Ellmann, et al. (Biochem. Pharmacol., 7:88-95 (1961)), as described above. Hydrolysis of acetylthiocholine was monitored indirectly by measurement of the formation of the conjugate between thiocholine and DTNB. Optical density at 405 nm was recorded during five (5) minutes employing a microplate spectrophotometer (Polarstar, BMG Labtech), and plotted against time. The initial rates were calculated from the slope of the linear portion of the graph.
Cholinesterase activity was normalized for protein content of the homogenate. Relative cholinesterase activity was calculated as the ratio of normalized cholinesterase activity in a rat treated with a control compound or a carbamoyl ester over normalized cholinesterase activity in saline treated rats.

[3] = molecular target: human recombinant acetylcholinesterase (Homo sapiens, UniProt P22303); format: biochemical
Sequence of human recombinant acetylcholinesterase (P22303 32-614): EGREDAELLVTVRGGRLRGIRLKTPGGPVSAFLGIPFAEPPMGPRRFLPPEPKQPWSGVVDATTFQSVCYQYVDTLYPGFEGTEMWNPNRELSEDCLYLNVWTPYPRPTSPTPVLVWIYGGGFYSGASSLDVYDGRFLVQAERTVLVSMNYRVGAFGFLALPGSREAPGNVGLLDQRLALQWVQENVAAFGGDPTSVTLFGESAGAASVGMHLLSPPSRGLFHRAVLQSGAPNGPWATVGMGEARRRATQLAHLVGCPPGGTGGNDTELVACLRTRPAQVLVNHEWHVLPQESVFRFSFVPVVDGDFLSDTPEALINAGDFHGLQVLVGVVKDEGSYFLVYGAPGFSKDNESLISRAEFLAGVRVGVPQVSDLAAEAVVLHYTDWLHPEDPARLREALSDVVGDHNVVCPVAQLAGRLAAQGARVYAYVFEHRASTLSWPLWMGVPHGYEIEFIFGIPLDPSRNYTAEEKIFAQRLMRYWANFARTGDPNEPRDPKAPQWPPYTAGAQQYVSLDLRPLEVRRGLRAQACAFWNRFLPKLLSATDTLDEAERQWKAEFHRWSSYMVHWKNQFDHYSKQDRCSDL

SMILES: CC(Cc1ccccc1)NC(=O)Oc1cccc([C@H](C)N(C)C)c1 (some centres unmarked) [Compound 3]
- Performance relative to scopolamine [1]: 294%
- Performance relative to saline [1]: 100%
- most effective dose (the dose that increases the latency the most) [1]: 1.4 mg/kg

SMILES: C[C@H](Cc1ccccc1)N(C)C(=O)Oc1cccc([C@H](C)N(C)C)c1 [Compound 7]
- ChE inhibition ([2]; 2 mg/kg i.p., brain 3 hours after injection): 38%
- Relative ChE Activity ([2]; 2 mg/kg i.p., brain 3 hours after injection, relative to saline treated rats): 62%
- tolerability of the dose [2]: well-tolerated
- Performance relative to scopolamine [1]: 298%
- Performance relative to saline [1]: 64%
- most effective dose (the dose that increases the latency the most) [1]: 0.25 mg/kg

SMILES: C[C@H](Cc1ccccc1)NC(=O)Oc1cccc([C@H](C)N(C)C)c1 [Compound 9]
- ChE inhibition ([2]; 8 mg/kg i.p., brain 3 hours after injection): 41%
- tolerability of the dose [2]: well-tolerated
- Performance relative to scopolamine [1]: 306%
- Performance relative to saline [1]: 83%
- most effective dose (the dose that increases the latency the most) [1]: 0.1 mg/kg

SMILES: C[C@H](Cc1ccccc1)NC(=O)Oc1ccc2c(c1)[C@]1(C)CCN(C)[C@@H]1N2C [Compound 14]
- fold increase in enzymatic activity compared to rivastigmine [3]: 10 fold
- Performance relative to scopolamine [1]: 186%
- Performance relative to saline [1]: 51%
- most effective dose (the dose that increases the latency the most) [1]: 0.02 mg/kg

SMILES: CCN(C)C(=O)Oc1cccc([C@H](C)N(C)C)c1 [Rivastigmine, reference compound]
- tolerability of the dose [2]: well-tolerated
- most effective dose (the dose that increases the latency the most) [1]: 0.25 mg/kg
